Experimental data published in PubChem BioAssay (NCI).
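Step 1: Grow cells in 96-well plates. Step 2: Expose to compound for 48 hours at 5 concentrations. Step 3: Interpolate endpoints linearly; if unreached, use highest concentration. GI50: concentration for 50% inhibition of growth. TGI denotes the concentration required for complete inhibition of growth.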

Legend:
Test in all cases: growth of human tumour cells (NCI), 48 h
[1] = system: HL-60(TB) leukemia
[2] = system: EKVX NSCLC
[3] = system: HCT-116 colon
[4] = system: IGROV1 ovarian
[5] = system: SK-MEL-28 melanoma
[6] = system: HCC-2998 colon
[7] = system: NCI-H226 lung
[8] = system: LOX IMVI melanoma
[9] = system: MCF7 breast
[10] = system: MDA-MB-231 breast

Row | SMILES | GI50 [1] | TGI [1] | GI50 [2] | TGI [2] | GI50 [3] | TGI [3] | GI50 [4] | TGI [4] | GI50 [5] | TGI [5] | GI50 [6] | TGI [6] | GI50 [7] | TGI [7] | GI50 [8] | TGI [8] | GI50 [9] | TGI [9] | GI50 [10] | TGI [10]
1 | O=C(/C=C(\O)C(=O)O)/C=C(\O)c1ccccc1 | > 1 µM | > 100 µM | > 1 µM | > 100 µM | > 1 µM | > 100 µM | > 1 µM | > 100 µM | > 1 µM | > 1 µM | > 100 µM | > 100 µM | > 1 µM | > 100 µM | > 1 µM | > 100 µM | – | – | – | –
2 | CC1=CC2C(C(O)CC3(C)C2CC(C)C32OCOC23COCO3)C2(C)C/C(=C/O)C(=O)C=C12 (stereo not given) | 2.1 µM | 4.63 µM | 2.31 µM | 7.48 µM | 1.49 µM | 2.97 µM | 2.07 µM | 4 µM | 1.87 µM | 3.51 µM | 1.91 µM | 3.38 µM | – | – | 1.75 µM | 3.31 µM | 2.69 µM | 10.1 µM | 1.75 µM | 3.49 µM
3 | O=c1[nH]c(=O)n(C2CC(O)C(CO)O2)cc1Oc1ccccc1 (stereo not given) | – | > 100 µM | – | > 100 µM | – | > 100 µM | – | > 100 µM | – | > 100 µM | – | – | – | > 100 µM | – | > 100 µM | – | > 100 µM | – | > 100 µM
4 | C=CC(=O)N1C/C(=C\c2ccc(Cl)c(Cl)c2)C(=O)/C(=C/c2ccc(Cl)c(Cl)c2)C1 | – | – | – | – | – | 0.188 µM | – | 0.263 µM | – | 1.5 µM | – | 0.446 µM | – | 2.73 µM | – | 0.842 µM | – | – | – | –
5 | CN(C)Cc1ccc(-c2cc3onc(-c4ccccc4)c3c(=O)n2C)cc1 | – | 4.56 µM | – | > 100 µM | – | 30.3 µM | – | > 100 µM | – | 41.2 µM | – | – | – | > 100 µM | – | 49.8 µM | – | > 100 µM | – | > 100 µM
6 | O=c1cc(-c2ccccn2)[nH]c2cccc(F)c12 | – | > 100 µM | – | > 100 µM | – | – | – | > 100 µM | – | > 100 µM | – | > 100 µM | – | > 100 µM | – | > 100 µM | – | – | – | –
7 | Oc1c(C(Nc2ccccc2Br)c2ccccc2)ccc2cccnc12 (stereo not given) | 2.34 µM | 6.25 µM | 2.48 µM | > 100 µM | 3.13 µM | 18 µM | 3.47 µM | 22.9 µM | 2.46 µM | 14.9 µM | 2.19 µM | 97.9 µM | – | – | 1.91 µM | 13.6 µM | 1.56 µM | 65.1 µM | 3.9 µM | 58.9 µM
8 | COc1cc2c(cc1OC)C(C(=O)O)C(c1ccccc1)N(C)C2=O (stereo not given) | – | – | – | > 100 µM | – | > 100 µM | – | > 100 µM | – | > 100 µM | – | > 100 µM | – | – | – | – | – | – | – | –
9 | CNC(=O)NCC1OC(n2cnc3c(NC(=O)Nc4ccccc4)ncnc32)C(O[Si](C)(C)C(C)(C)C)C1O[Si](C)(C)C(C)(C)C (stereo not given) | – | – | 3.7 µM | 30.6 µM | 2.11 µM | 4.31 µM | 2.74 µM | 7.76 µM | – | – | 2.02 µM | 3.75 µM | 3.1 µM | 8.63 µM | 1.82 µM | 3.36 µM | 2.69 µM | 19.4 µM | 2.61 µM | 6.12 µM
10 | COc1ccc2c(c1)/C(=C\c1ccncc1)C(=O)N2 | 6.8 µM | > 100 µM | 13.9 µM | 33 µM | 3.72 µM | 17.8 µM | 4.15 µM | 9.37 µM | – | – | 19 µM | > 100 µM | – | – | 2.26 µM | 5.82 µM | 8.68 µM | > 100 µM | 17.2 µM | 36.7 µM
11 | CCOC(=O)NC(=O)c1cn(CCN2CCN(C(=O)CNC(=O)CNC(=O)Cn3cc(C(=O)NC(=O)OCC)c(=O)[nH]c3=O)CC2)c(=O)[nH]c1=O | – | > 100 µM | – | – | – | > 100 µM | – | – | – | > 100 µM | – | > 100 µM | – | – | – | > 100 µM | – | – | – | –
12 | C/C(CC(=O)Nc1cccc(Cl)c1C)=N\NC(N)=S | – | > 100 µM | – | > 100 µM | – | > 100 µM | – | > 100 µM | – | > 100 µM | – | > 100 µM | – | > 100 µM | – | > 100 µM | – | – | – | –
13 | COC1C(OC(=O)c2ccc(C)[nH]2)C(O)C(Oc2ccc3c(O)c(NC(=O)c4c[nH]c(C(=O)Nc5c(O)c6ccc(OC7OC(C)(C)C(OC)C(OC(=O)c8ccc(C)[nH]8)C7O)c(C)c6oc5=O)c4C)c(=O)oc3c2C)OC1(C)C (stereo not given) | – | – | – | 19.2 µM | – | – | – | 3.62 µM | – | 2.25 µM | – | 7.26 µM | – | 3.84 µM | – | 9.4 µM | – | – | – | –
14 | CC(C)/C=C1\CCC(CN2CCOCC2)C1=O (stereo not given) | – | 5.58 µM | – | 36.8 µM | – | 23.4 µM | – | 20.8 µM | – | 32.2 µM | – | 36.5 µM | – | 94.8 µM | – | 53.6 µM | – | – | – | –
15 | N#C/C(=C1\SCC(=O)N1c1ccccc1)c1nc2ccccc2[nH]1 | – | > 100 µM | – | > 100 µM | – | > 100 µM | – | > 100 µM | – | > 100 µM | – | – | – | > 100 µM | – | > 100 µM | – | – | – | –
16 | O=C(O)C(Cc1cnc[nH]1)N1C(=O)c2ccccc2C1=O (stereo not given) | – | – | – | > 100 µM | – | > 100 µM | – | > 100 µM | – | > 100 µM | – | – | – | > 100 µM | – | > 100 µM | – | > 100 µM | – | > 100 µM
17 | Cc1ccc(/C=C/c2c(C(=O)/C=C/c3ccccc3)c(C)nc3ccccc23)cc1 | 2.04 µM | 4.89 µM | 1.85 µM | 3.58 µM | 0.762 µM | 2.2 µM | 1.41 µM | 4.48 µM | 1.77 µM | 3.27 µM | 1.71 µM | 3.35 µM | 1.69 µM | 3.46 µM | 1.64 µM | 3 µM | – | – | – | –
18 | COc1cc2c(cc1OC)-c1ncc3c(OC)ccc(OC)c3c1C2 | – | – | 16.9 µM | 54.9 µM | 17.8 µM | > 100 µM | 13.9 µM | 48.5 µM | > 100 µM | > 100 µM | 22.6 µM | > 100 µM | – | – | 16.7 µM | > 100 µM | – | – | > 100 µM | > 100 µM
19 | COc1ccccc1N=Nc1c(-c2ccccc2)nn(C(=O)CC(=O)Nc2cccc(C)c2)c1-c1ccccc1 | – | 38 µM | – | > 100 µM | – | > 100 µM | – | > 100 µM | – | > 100 µM | – | > 100 µM | – | > 100 µM | – | > 100 µM | – | – | – | –
